Results on 14 compounds are retold here after patent publication US7345081B2, “Azabicyclo-octane inhibitors of IAP” (Genentech, Inc., priority 2004, dated 2008).

Assay [1] deals with T1, MLXBIR3SG (Homo sapiens, UniProt Q96CA5, S150G).
T1 sequence (Q96CA5 with tags, fused parts or gaps S150G): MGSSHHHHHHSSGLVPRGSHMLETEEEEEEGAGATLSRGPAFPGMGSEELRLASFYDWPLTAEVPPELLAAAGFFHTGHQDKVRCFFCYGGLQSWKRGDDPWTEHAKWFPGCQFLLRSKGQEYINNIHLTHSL
Put plainly: TR-FRET peptide binding assay. As to conditions: TR-FRET competition; 300 nM his-tagged MLXBIR3SG, 200 nM biotinylated SMAC peptide (AVPI). Here is the method: The improved caspase-9 inhibition of the chimeric BIR domain MLXBIR3SG has been correlated with increased inhibition of doxorubicin-induced apoptosis when transfected into MCF7 cells. TR-FRET Peptide Binding Assay Time-Resolved Fluorescence Resonance Energy Transfer competition experiments were performed on the Wallac Victor2 Multilabeled Counter Reader (Perkin Elmer Life and Analytical Sciences, Inc.) according to the procedures of Kolb et al (Journal of Biomolecular Screening, 1996, 1(4):203). A reagent cocktail containing 300 nM his-tagged MLXBIR3SG; 200 nM biotinylated SMAC peptide (AVPI); 5 μg/mL anti-his allophycocyanin (XL665) (CISBio International); and 200 ng/mL streptavidin-europium (Perkin Elmer) was prepared in reagent buffer (50 mM Tris [pH 7.2], 120 mM NaCl, 0.1% bovine globulins, 5 mM DTT and 0.05% octylglucoside). […] The reagent cocktail was incubated at room temperature for 30 minutes. […] After a 90 minute incubation at room temperature, the fluorescence was read with filters for the excitation of europium (340 nm) and for the emission wavelengths of europium (615 nm) and a allophycocyanin (665 nm). Antagonist data were calculated as a ratio of the emission signal of allophycocyanin at 665 nm to that of the emission of europium at 615 nm (these ratios were multiplied by a factor of 10,000 for ease of data manipulation). The resulting values were plotted as a function of antagonist concentration and fit to a 4-parameter equation using Kaleidograph software (Synergy Software, Reading, Pa.). Indications of antagonist potency were determined from the IC50 values.
For orientation: Time-resolved FRET reads energy transfer from a long-lived donor to a nearby acceptor.

The target in assay [2] is T1, MLXBIR3SG. The assay can be described thus: Fluorescence polarization peptide binding assay. As to conditions: fluorescence polarization competition; for Ki: Ki determined from the IC50 values; for IC50: MLXBIR3SG at 30 nM, 5 nM AVP-diPhe-FAM probe. How it is done: The improved caspase-9 inhibition of the chimeric BIR domain MLXBIR3SG has been correlated with increased inhibition of doxorubicin-induced apoptosis when transfected into MCF7 cells. Fluorescence Polarization Peptide Binding Assay Polarization experiments were performed on an Analyst HT 96-384 (Molecular Devices Corp.) according to the procedure of […]., Zioncheck, K., Clark, K., Arellano, F., and Bodary., S.(2000) in Proceedings of SPIE : In Vitro Diagnostic Instrumentation (Cohn, G. E., Ed.) pp 128-137, Bellingham, Wash. […] Fluorescence values were plotted as a function of the protein concentration, and the IC50s were obtained by fitting the data to a 4-parameter equation using Kaleidograph software (Synergy software, Reading, Pa.). […] Samples were read after a 10-minute incubation. Fluorescence polarization values were plotted as a function of the antagonist concentration, and the IC50 values were obtained by fitting the data to a 4-parameter equation using Kaleidograph software (Synergy software, Reading, Pa.). Inhibition constants (Ki) for the antagonists were determined from the IC50 values.

The term IC50 denotes the concentration at which inhibition is half-maximal. Take `CN[C@@H](C)C(=O)N[C@H](C(=O)N1CCC2CCC(NC(=O)C3COc4ccccc43)C21)C(C)(C)C` (stereo partly drawn) [Compound 3]: the IC50 on MLXBIR3SG [1] was less than 10 µM.

The Ki is a measure of affinity in units of concentration, obtained from inhibition or displacement. For the compound `CN[C@@H](C)C(=O)N[C@H](C(=O)N1CCC2CCC(NC(=O)C(c3ccccc3)c3ccc(F)cc3)C21)C(C)(C)C` (stereo partly drawn) [Compound 4], the half-inhibitory concentration (IC50) on MLXBIR3SG [1] was less than 10 µM. At MLXBIR3SG [2], the Ki was less than 200 nM and the IC50 is less than 1000 nM.

`COc1ccc2ccccc2c1C(=O)NC1CCC2CCN(C(=O)C(NC(=O)C(C)N)C(C)C)C21` (stereo not drawn) [Compound 5]: the IC50 on MLXBIR3SG [1] was less than 10 µM.

For `CN[C@@H](C)C(=O)N[C@H](C(=O)N1CCC2CCC(NC(=O)c3ccc(C)c4ccccc34)C21)C(C)(C)C` (stereo partly drawn) [Compound 6], the IC50 is less than 10 µM on MLXBIR3SG [1] and less than 1000 nM at MLXBIR3SG [2]. The inhibition constant (Ki) on MLXBIR3SG [2] was less than 200 nM.

For the compound `CNC(C)C(=O)NC(C(=O)N1CCC2CCC(NC(=O)C(c3ccccc3)c3ccccc3)C21)C(C)(C)C` (stereo not drawn) [Compound 9], on MLXBIR3SG [1], the half-maximal inhibitory concentration (IC50) is less than 10 µM.

Consider `CN[C@@H](C)C(=O)N[C@H](C(=O)N1CCC2CCC(NC(=O)c3coc4ccccc34)C21)C(C)(C)C` (stereo partly drawn) [Compound 11], for which, at MLXBIR3SG [1], the IC50 was less than 10 µM.

With `CN[C@@H](C)C(=O)N[C@H](C(=O)N1CCC2CCC(NC(=O)c3c(OC)ccc4ccccc34)C21)C(C)(C)C` (stereo partly drawn) [Compound 12], on MLXBIR3SG [1], the half-inhibitory concentration (IC50) is less than 10 µM. Moreover, on MLXBIR3SG [2], the Ki was less than 200 nM and the IC50 was less than 1000 nM.

Regarding `C[C@H](N)C(=O)N[C@H](C(=O)N1CCC2CCC(NC(=O)c3cccc4ccccc34)C21)C(C)(C)C` (stereo partly drawn) [Compound 13], on MLXBIR3SG [1], the IC50 was less than 10 µM.

As to `CN[C@@H](C)C(=O)N[C@H](C(=O)N1CCC2CCC(NC(=O)c3ccccc3)C21)C(C)(C)C` (stereo partly drawn) [Compound 14], on MLXBIR3SG [1], the half-maximal inhibitory concentration (IC50) was less than 10 µM.

As to `CN[C@@H](C)C(=O)N[C@H](C(=O)N1CCC2CCC(NC(=O)c3csc4ccccc34)C21)C(C)(C)C` (stereo partly drawn) [Compound 16], at MLXBIR3SG [1], the IC50 is less than 10 µM. Further, at MLXBIR3SG [2], the inhibition constant Ki was less than 200 nM and the IC50 is less than 1000 nM.

Turning to `CN[C@@H](C)C(=O)N[C@H](C(=O)N1CCC2CCC(NC(=O)c3cccc4ccccc34)C21)C(C)(C)C` (stereo partly drawn) [Compound 21], the IC50 on MLXBIR3SG [1] is less than 10 µM.

On to `C[C@H](N)C(=O)N[C@H](C(=O)N1CCC2CCC(NC(=O)C(c3ccccc3)c3ccccc3)C21)C(C)(C)C` (stereo partly drawn) [Compound 22], for which the IC50 at MLXBIR3SG [1] is less than 10 µM.

For the compound `CN[C@@H](C)C(=O)N[C@H](C(=O)N1CCC2CCC(NC(=O)c3ccc(F)c4ccccc34)C21)C(C)(C)C` (stereo partly drawn) [Compound 24], on MLXBIR3SG [1], the IC50 was less than 10 µM. Besides, at MLXBIR3SG [2], the inhibition constant (Ki) is less than 200 nM and the IC50 was less than 1000 nM.

On to `CN[C@@H](C)C(=O)N[C@H](C(=O)N1CCC2CCC(NC(=O)c3cccc4ccccc34)C21)C1CCCCC1` (stereo partly drawn) [Compound 28], for which the IC50 on MLXBIR3SG [1] was less than 10 µM.
